ChEMBL document CHEMBL3232711, “Novel inhibitors of the MDM2-p53 interaction featuring hydrogen bond acceptors as carboxylic acid isosteres” (J Med Chem, 2014)
One block for each molecule: values may come before it.

Experiments:
[1] = Intrinsic clearance in human hepatocytes measured per 10^6 cells; format: ADME, cell-based, Hepatocyte; conditions: read-out: CLH
[2] = Clearance in rat at 0.5 mg/kg, iv; format: ADME, organism-based; design: dose 0.5 mg/kg, route intravenous; conditions: in vivo
[3] = Half life in rat at 0.5 mg/kg, iv; format: ADME, organism-based; design: dose 0.5 mg/kg, route intravenous; conditions: in vivo
[4] = Volume of distribution at steady state in mouse at 0.5 mg/kg, iv; format: ADME, organism-based; design: dose 0.5 mg/kg, route intravenous; conditions: in vivo, read-out: Vdss
[5] = Volume of distribution at steady state in rat at 0.5 mg/kg, iv; format: ADME, organism-based; design: dose 0.5 mg/kg, route intravenous; conditions: in vivo, read-out: Vdss
[6] = Oral bioavailability in mouse at 5 mg/kg; format: ADME, organism-based; conditions: in vivo
[7] = Half life in mouse at 0.5 mg/kg, iv; format: ADME, organism-based; design: dose 0.5 mg/kg, route intravenous; conditions: in vivo
[8] = Clearance in mouse at 0.5 mg/kg, iv; format: ADME, organism-based; design: dose 0.5 mg/kg, route intravenous; conditions: in vivo
[9] = Drug metabolism in rat hepatocytes assessed as oxidative metabolite formation at 10 uM after 2 hrs by LC-MS/MS analysis; format: ADME, cell-based, Hepatocyte
[10] = Drug metabolism in dog hepatocytes assessed as 2-(2-(((3R,5R,6S)-1-((S)-2-(tert-butylsulfonyl)-1-cyclopropylethyl)-6-(4-chloro-3-fluorophenyl)-5-(3-chlorophenyl)-3-methyl-2-oxopiperidin-3-yl)methyl)thiazol-5-yl)acetic acid formation at 10 uM after 2 hrs by LC-MS/MS analysis; format: ADME, cell-based, Canis lupus familiaris, Hepatocyte
[11] = Drug metabolism in monkey hepatocytes assessed as oxidative metabolite formation at 10 uM after 2 hrs by LC-MS/MS analysis; format: ADME, cell-based, Macaca mulatta, Hepatocyte; conditions: rhesus monkey
[12] = Drug metabolism in mouse hepatocytes assessed as oxidative metabolite formation at 10 uM after 2 hrs by LC-MS/MS analysis; format: ADME, cell-based, Hepatocyte
[13] = Drug metabolism in monkey hepatocytes assessed as 2-(2-(((3R,5R,6S)-1-((S)-2-(tert-butylsulfonyl)-1-cyclopropylethyl)-6-(4-chloro-3-fluorophenyl)-5-(3-chlorophenyl)-3-methyl-2-oxopiperidin-3-yl)methyl)thiazol-5-yl)acetic acid formation at 10 uM after 2 hrs by LC-MS/MS analysis; format: ADME, cell-based, Macaca mulatta, Hepatocyte; conditions: rhesus monkey
[14] = Drug metabolism in rat hepatocytes assessed as 2-(2-(((3R,5R,6S)-1-((S)-2-(tert-butylsulfonyl)-1-cyclopropylethyl)-6-(4-chloro-3-fluorophenyl)-5-(3-chlorophenyl)-3-methyl-2-oxopiperidin-3-yl)methyl)thiazol-5-yl)acetic acid formation at 10 uM after 2 hrs by LC-MS/MS analysis; format: ADME, cell-based, Hepatocyte
[15] = Drug metabolism in human hepatocytes assessed as 2-(2-(((3R,5R,6S)-1-((S)-2-(tert-butylsulfonyl)-1-cyclopropylethyl)-6-(4-chloro-3-fluorophenyl)-5-(3-chlorophenyl)-3-methyl-2-oxopiperidin-3-yl)methyl)thiazol-5-yl)acetic acid metabolite formation at 10 uM after 2 hrs by LC-MS/MS analysis; format: ADME, cell-based, Hepatocyte
[16] = Drug metabolism in dog hepatocytes assessed as oxidative metabolite formation at 10 uM after 2 hrs by LC-MS/MS analysis; format: ADME, cell-based, Canis lupus familiaris, Hepatocyte
[17] = Drug metabolism in human hepatocytes assessed as oxidative metabolite formation at 10 uM after 2 hrs by LC-MS/MS analysis; format: ADME, cell-based, Hepatocyte
[18] = Drug metabolism in mouse hepatocytes assessed as 2-(2-(((3R,5R,6S)-1-((S)-2-(tert-butylsulfonyl)-1-cyclopropylethyl)-6-(4-chloro-3-fluorophenyl)-5-(3-chlorophenyl)-3-methyl-2-oxopiperidin-3-yl)methyl)thiazol-5-yl)acetic acid formation at 10 uM after 2 hrs by LC-MS/MS analysis; format: ADME, cell-based, Hepatocyte

hepatocyte CLint [1]: 14 µL/min/1e6 cells
SMILES: CC(C)(C)S(=O)(=O)C[C@H](C1CC1)N1C(=O)[C@@](C)(Cc2ncc(C(=O)O)cn2)C[C@H](c2cccc(Cl)c2)[C@H]1c1ccc(Cl)c(F)c1

hepatocyte CLint [1]: 3.4 µL/min/1e6 cells
SMILES: CC(C)(C)S(=O)(=O)C[C@H](C1CC1)N1C(=O)[C@@](C)(Cc2ccc(CC(=O)O)cn2)C[C@H](c2cccc(Cl)c2)[C@H]1c1ccc(Cl)cc1

hepatocyte CLint [1]: 4.7 µL/min/1e6 cells
SMILES: CC(C)(C)S(=O)(=O)C[C@H](C1CC1)N1C(=O)[C@@](C)(Cc2ncc(C(F)(F)C(=O)O)s2)C[C@H](c2cccc(Cl)c2)[C@H]1c1ccc(Cl)c(F)c1

clearance [2]: 0.09 L/h/kg
half-life [3]: 2.3 h
hepatocyte CLint [1]: 10 µL/min/1e6 cells
Vd [4]: 0.53 L/kg
Vd [5]: 0.41 L/kg
bioavailability [6]: 36%
half-life [7]: 4.1 h
clearance [8]: 0.15 L/h/kg
SMILES: CC(C)(C)S(=O)(=O)C[C@H](C1CC1)N1C(=O)[C@@](C)(Cc2ncc(C(=O)O)s2)C[C@H](c2cccc(Cl)c2)[C@H]1c1ccc(Cl)c(F)c1

hepatocyte CLint [1]: 14 µL/min/1e6 cells
SMILES: CC(C)(C)S(=O)(=O)C[C@H](C1CC1)N1C(=O)[C@@](C)(Cc2nccs2)C[C@H](c2cccc(Cl)c2)[C@H]1c1ccc(Cl)c(F)c1

hepatocyte CLint [1]: 10 µL/min/1e6 cells
SMILES: CC(C)(C)S(=O)(=O)C[C@H](C1CC1)N1C(=O)[C@@](C)(Cc2ncc(C(=O)O)cn2)C[C@H](c2cccc(Cl)c2)[C@H]1c1ccc(Cl)cc1

hepatocyte CLint [1]: 7.8 µL/min/1e6 cells
SMILES: CC(C)(C)S(=O)(=O)C[C@H](C1CC1)N1C(=O)[C@@](C)(Cc2ccc(C(=O)O)cn2)C[C@H](c2cccc(Cl)c2)[C@H]1c1ccc(Cl)c(F)c1

hepatocyte CLint [1]: 5.1 µL/min/1e6 cells
SMILES: Cc1cc(C[C@@]2(C)C[C@H](c3cccc(Cl)c3)[C@@H](c3ccc(Cl)cc3)N([C@H](CS(=O)(=O)C(C)(C)C)C3CC3)C2=O)ncc1C(=O)O

hepatocyte CLint [1]: 3.6 µL/min/1e6 cells
SMILES: CC(C)(C(=O)O)c1cnc(C[C@@]2(C)C[C@H](c3cccc(Cl)c3)[C@@H](c3ccc(Cl)cc3)N([C@H](CS(=O)(=O)C(C)(C)C)C3CC3)C2=O)s1

hepatocyte CLint [1]: 25 µL/min/1e6 cells
SMILES: CC(C)(C)S(=O)(=O)C[C@H](C1CC1)N1C(=O)[C@@](C)(Cc2cnc(C(=O)O)cn2)C[C@H](c2cccc(Cl)c2)[C@H]1c1ccc(Cl)cc1

hepatocyte CLint [1]: 4.3 µL/min/1e6 cells
SMILES: CC(C)(C)S(=O)(=O)C[C@H](C1CC1)N1C(=O)[C@@](C)(Cc2ncc(CC(=O)O)o2)C[C@H](c2cccc(Cl)c2)[C@H]1c1ccc(Cl)c(F)c1

Drug metabolism [9]: metabolite_detected
Drug metabolism [10]: metabolite_notdetected
clearance [2]: 0.23 L/h/kg
Drug metabolism [11]: metabolite_detected
Drug metabolism [12]: metabolite_detected
half-life [3]: 4.4 h
Drug metabolism [13]: metabolite_notdetected
hepatocyte CLint [1]: 5.5 µL/min/1e6 cells
Drug metabolism [14]: metabolite_notdetected
Drug metabolism [15]: metabolite_notdetected
Vd [4]: 0.35 L/kg
Vd [5]: 0.27 L/kg
bioavailability [6]: 56%
Drug metabolism [16]: metabolite_detected
Drug metabolism [17]: metabolite_detected
half-life [7]: 3.2 h
Drug metabolism [18]: metabolite_notdetected
clearance [8]: 0.15 L/h/kg
SMILES: CC(C)(C)S(=O)(=O)C[C@H](C1CC1)N1C(=O)[C@@](C)(Cc2ncc(CC(=O)O)s2)C[C@H](c2cccc(Cl)c2)[C@H]1c1ccc(Cl)c(F)c1

hepatocyte CLint [1]: 2.8 µL/min/1e6 cells
SMILES: CC(C)(C)S(=O)(=O)C[C@H](C1CC1)N1C(=O)[C@@](C)(Cn2cc(C(=O)O)cn2)C[C@H](c2cccc(Cl)c2)[C@H]1c1ccc(Cl)cc1

hepatocyte CLint [1]: < 0.1 µL/min/1e6 cells
SMILES: CC(C)(C(=O)O)c1ccc(C[C@@]2(C)C[C@H](c3cccc(Cl)c3)[C@@H](c3ccc(Cl)cc3)N([C@H](CS(=O)(=O)C(C)(C)C)C3CC3)C2=O)nc1

clearance [2]: 1.37 L/h/kg
half-life [3]: 1.81 h
hepatocyte CLint [1]: 5.8 µL/min/1e6 cells
Vd [4]: 0.72 L/kg
Vd [5]: 0.74 L/kg
bioavailability [6]: 10%
half-life [7]: 2.01 h
clearance [8]: 0.43 L/h/kg
SMILES: CC(C)(C)S(=O)(=O)C[C@H](C1CC1)N1C(=O)[C@@](C)(Cc2ncc(CC(=O)O)s2)C[C@H](c2cccc(Cl)c2)[C@H]1c1ccc(Cl)cc1

clearance [2]: 0.19 L/h/kg
half-life [3]: 3.6 h
hepatocyte CLint [1]: 8.7 µL/min/1e6 cells
Vd [4]: 0.67 L/kg
Vd [5]: 0.18 L/kg
bioavailability [6]: 18%
half-life [7]: 3.3 h
clearance [8]: 0.35 L/h/kg
SMILES: CC(C)(C)S(=O)(=O)C[C@H](C1CC1)N1C(=O)[C@@](C)(Cc2ncc(C(=O)O)s2)C[C@H](c2cccc(Cl)c2)[C@H]1c1ccc(Cl)cc1

hepatocyte CLint [1]: 26 µL/min/1e6 cells
SMILES: Cc1nc(C[C@@]2(C)C[C@H](c3cccc(Cl)c3)[C@@H](c3ccc(Cl)cc3)N([C@H](CS(=O)(=O)C(C)(C)C)C3CC3)C2=O)ccc1C(=O)O

hepatocyte CLint [1]: 10 µL/min/1e6 cells
SMILES: CC(C)(C)S(=O)(=O)C[C@H](C1CC1)N1C(=O)[C@@](C)(Cc2nnc(CC(=O)O)[nH]2)C[C@H](c2cccc(Cl)c2)[C@H]1c1ccc(Cl)cc1

clearance [2]: 0.36 L/h/kg
half-life [3]: 1.8 h
hepatocyte CLint [1]: 10 µL/min/1e6 cells
Vd [4]: 0.57 L/kg
Vd [5]: 0.41 L/kg
bioavailability [6]: 60%
half-life [7]: 2.8 h
clearance [8]: 0.23 L/h/kg
SMILES: CC(C)(C)S(=O)(=O)C[C@H](C1CC1)N1C(=O)[C@@](C)(Cc2ccc(C(=O)O)cn2)C[C@H](c2cccc(Cl)c2)[C@H]1c1ccc(Cl)cc1

hepatocyte CLint [1]: 1.8 µL/min/1e6 cells
SMILES: CC(C)(C)S(=O)(=O)C[C@H](C1CC1)N1C(=O)[C@@](C)(Cc2nc(C(=O)O)cs2)C[C@H](c2cccc(Cl)c2)[C@H]1c1ccc(Cl)cc1

hepatocyte CLint [1]: 5 µL/min/1e6 cells
SMILES: CC(C)(C)S(=O)(=O)C[C@H](C1CC1)N1C(=O)[C@@](C)(Cc2ncc(CC(=O)O)[nH]2)C[C@H](c2cccc(Cl)c2)[C@H]1c1ccc(Cl)cc1

hepatocyte CLint [1]: 5.3 µL/min/1e6 cells
SMILES: CC(C)(C)S(=O)(=O)C[C@H](C1CC1)N1C(=O)[C@@](C)(Cc2nc(CC(=O)O)cs2)C[C@H](c2cccc(Cl)c2)[C@H]1c1ccc(Cl)cc1

hepatocyte CLint [1]: 47 µL/min/1e6 cells
SMILES: CC(C)(C)S(=O)(=O)C[C@H](C1CC1)N1C(=O)[C@@](C)(Cc2ncc(C(=O)CO)s2)C[C@H](c2cccc(Cl)c2)[C@H]1c1ccc(Cl)cc1

hepatocyte CLint [1]: 7.7 µL/min/1e6 cells
SMILES: CC(C)(C)S(=O)(=O)C[C@H](C1CC1)N1C(=O)[C@@](C)(Cc2ncc(C3(C(=O)O)CC3)s2)C[C@H](c2cccc(Cl)c2)[C@H]1c1ccc(Cl)cc1
